{
  "source": "patent US9855277B2",
  "about": "“Use of 5H-dibenz/b,f/azepine-5-carboxamide derivatives for treating fibromyalgia” (BIAL—PORTELA & CA, S.A., priority 2009, dated 2018)",
  "key": {"[1]": {"system": "mice with chronic constriction nerve injury (CCI)", "assay": "Paw withdrawal threshold (von Frey filaments) in CCI mice", "type": "in vivo", "experimental": "The materials used were (as also indicated in FIGS. 1 and 2): • Vehicle: 0.5% hydroxy-propyl-methyl-cellulose (HPMC) in water, 5 ml/kg, p.o.; • 50 mg/kg, 100 mg/kg, 150 mg/kg and 200 mg/kg: ESL at 50, 100, 150 and 200 mg/kg, p.o.; • GP 100 mg/kg: gabapentin 100 mg/kg, p.o.\nThe potential analgesic effects of orally dosed ESL was investigated at doses of 50, 100, 150 and 200 mg/kg, on the paw withdrawal threshold (PWT) and these effects compared with those of the dose vehicle and gabapentin, the latter at 100 mg/kg, in a mouse model of chronic constriction nerve injury (CCI).\nEach animal received a single oral dose of either ESL (50, 100, 150, or 200 mg/kg), or gabapentin (100 mg/kg in saline) or vehicle (5 ml/kg). Behavioural testing was then performed twice, at approximately 60 and 120 minutes post-dose, to investigate the effect of treatments."}, "[2]": {"system": "peripheral nerve filaments of CCI mice", "assay": "Ectopic discharge of peripheral nerve filaments in CCI mice (electrophysiological recording)", "type": "in vivo", "settings": "for ectopic discharge firing rate: 5 preparations", "text": "Adult male BL CB F1 mice, weighing 25-30 g at the time of surgery and 26-38 g at the time of electrophysiological experiments, were used. The baseline paw withdrawal threshold (PWT) was examined using a series of graduated von Frey hairs (see below) on 3 consecutive days before surgery and re-assessed on the 7th and on the 14th days after surgery, before electrophysiological recording. The animals were killed by an overdose of pentobarbitone on completion of the study. The chronic constriction injury (CCI) model was prepared following the standard protocols described previously (Bennett and Xie, 1988). Mice were anaesthetised and the lateral side of the left thigh was shaved and sterilized with 75% ethanol. A small incision of approximately 0.5 cm was made parallel to the femur. The muscle was carefully separated to expose the sciatic nerve. Three loose ligatures were placed on the sciatic nerve with 5-0 suture silk thread at approximately 1 mm intervals. The wound was closed in layers with suture silk 4-0 and the animals were placed in a recovery chamber with the temperature controlled and set at 30° C. A dose of amoxicillin (0.02 mL, 3 mg) was routinely injected i.p. after surgery to prevent infection. The animals were returned to their home cages after complete recovery of consciousness and freedom of movement. For the first 2 days after surgery, the animals were closely monitored at least twice daily and subsequently, at least once daily until compound testing. Each animal was placed in a perspex cage on a metal mesh. A series of von Frey filaments (0.07 g, 0.16 g, 0.4 g, 0.6 g, 1.0 g) were applied to the plantar surface of the hind-paw, from below. The filaments were applied in ascending order (starting with the lowest force 0.07 g) to both ipsilateral and contralateral hind-paws. Each filament was applied 10 times with a protocol of one second on, one second off. The PWT was defined as being the lowest force required to elicit at least 5 paw withdrawal responses out of 10 trials. The baseline PWT was tested for 3 consecutive days before surgery and re-assessed on the 7th and 14th days after surgery to monitor the development of mechanical allodynia. Only those mice showing significant mechanical allodynia (PWT≦0.2 g) were selected for subsequent electrophysiological experiments. The mice were re-anaesthetised and the sciatic nerve was exposed via a dorsal incision on the hind-limb. The skin was secured (stitched) to a metal O-ring to form an oil pool for recording nerve activity. A reference electrode was connected to the metal O-ring to form a closed circuit with the nerve recording electrode. To record ectopic discharge generated from the intact animal, under a microscope, the small bundles of sural nerve (distal to the ligated area) were repeatedly teased and looped onto a unipolar silver electrode for examination. To facilitate the recording of ectopic discharge generated from the neuroma (ligated area) or from the DRG, the sciatic nerve was separated carefully from the surrounding connective tissues, sectioned at a more proximal site leaving the injured area intact or near the injured area leaving the more proximal part intact. A small bundle of nerve filaments were teased from the sciatic nerve from either the distal or proximal cut end of the sciatic nerve, to record neuroma-generated ectopic discharge, or from the proximal cut end to record DRG-generated ectopic discharge. The filament was looped on to a unipolar silver wire recording electrode with an indifference electrode connected to the connective tissues nearby, allowing the spontaneous activity generated from either the ligated area (sensitized axons) or from DRG (somata) to be recorded. The electrical signals were then recorded through a CED micro-1401 interface to a PC for later off-line analysis. Recording from a fibre with spontaneous activity was undertaken for at least 10 min for control and 40 min after either vehicle or ESL administration. […]"}},
  "data": [
    {"compound": "CC(=O)O[C@H]1Cc2ccccc2N(C(N)=O)c2ccccc21", "note": "[ESL, S-(−)-10-acetoxy-10,11-dihydro-5H-dibenz/b,f/azepine-5-carboxamide]", "values": [
      {"measurement": "PWT in the contralateral limbs vs vehicle group", "setting": "[1]; 50 mg/kg group on 14th to 16th day, P<0.05", "value": "significantly higher"},
      {"measurement": "potency and efficacy compared with reference compound", "setting": "[1]; CCI mice, PWT", "value": "potency and efficacy similar to the reference compound, gabapentin"},
      {"measurement": "PWT in the ipsilateral hindpaw", "setting": "[1]; ESL 50, 100, 150, 200 mg/kg p.o., single dose, tested about 60 and 120 min post-dose", "value": "dose-dependently increased the PWT"},
      {"measurement": "PWT in the contralateral side", "setting": "[1]; ESL 50-200 mg/kg p.o., vs vehicle", "value": "did not significantly affect the PWT"},
      {"measurement": "duration of the effect on PWT after dosing", "setting": "[1]; ESL p.o., ipsilateral hindpaw", "value": "more than 2 hours"},
      {"measurement": "ectopic discharge, % of control", "setting": "[2]; DRG origin, ESL 100 mg/kg i.p., P<0.05 vs vehicle", "value": "58.43±13.21 % of control"},
      {"measurement": "ectopic discharge average firing rate", "setting": "[2]; DRG origin, ESL 100 mg/kg i.p., control 514.3±141.0, 6 preparations", "value": "274.4±117.1", "unit": "imps/min"},
      {"measurement": "ectopic discharge, % of control level", "setting": "[2]; intact CCI mice, ESL 100 mg/kg ip, 30-35 min after injection, P<0.001 vs control", "value": "26.6±10.6 % of control"},
      {"measurement": "ectopic discharge firing rate", "setting": "[2]; intact CCI mice, ESL 100 mg/kg ip, 30-35 min after injection, control 2048.0±391.6, mean±SEM", "value": "699.8±339.7", "unit": "imps/min"},
      {"measurement": "ectopic discharge firing rate", "setting": "[2]; neuroma origin (sciatic nerve sectioned proximally), ESL 100 mg/kg ip, 30 min after injection, control 1390.6±378.5", "value": "643.5±249.2", "unit": "imps/min"},
      {"measurement": "ectopic discharge, % of control levels", "setting": "[2]; neuroma origin, ESL 100 mg/kg ip, 30 min after injection, P<0.01", "value": "36.5±12.3 % of control"}
    ]}
  ]
}
